Where two headings read alike, the source gives them in different places.
Biological target: T1, Dihydrofolate reductase (DHFR) (Escherichia coli, UniProt P0ABQ4)
T1 construct: gift of Professor Eric Brown (McMaster University)
Assay type: binding, E. coli
Settings: for retention (elution) time: FIG. 19 Panel B, column with 50 pmol DHFR initial loading, compounds infused at 20 nM, fluorescein 100 nM; for elution time: first run
Method: A second aqueous solution of 50 mM HEPES at pH 7.5 was prepared containing 16% (w/v) PEO (MW=10 000) and 0.6% (v/v) APTES. This aqueous solution also contained ca. 20 μM of DHFR. […] The mixture underwent spinodal decomposition (phase separation) in about 2-3 min followed by silica polymerization (˜10 min) to generate a hydrated macroporous monolithic column containing entrapped protein. After loading the sol-gel mixture, the monolithic columns were aged for a minimum of 5 days at 4 C and then cut into 10 cm lengths before use. In some cases, the APTES present in the columns was replaced with a final concentration of either 0.03% polyallylamine (PAM, MW 17,000) or 0.3% dimethyldimethoxysilane (DMDMS) to examine the effects of surface derivatization on non-selective retention.
Syringe pumps (Harvard Instruments PhD 2000) were used to deliver solutions, and a flow-switching valve was used to toggle between the assay buffer and the solution containing the compound mixture. This solution was then pumped through the column to achieve equilibrium. Effluent was combined with suitable organic modifiers to assist in the generation of a stable electrospray and detectability of the sprayed components using a triple-quadrupole MS system (Sciex API 3000). This configuration allows for maximum flexibility in compound introduction. Full operation of FAC-MS methods requires frequent flow switching between two solutions connected to the head of the column. An Upchurch microinjection valve allows syringe contents to be exchanged during operation. […] All other connections between components were achieved using fused silica tubing.
Before the first run, the column was flushed with 0.05 M NH4OAc buffer (pH 6.6, 100 mM NaCl) for 30 min at different flow rates (from 1 to 5 μL.min^−1) to remove any glycerol and non-entrapped protein and then equilibrated with 2 mM NH4OAc for 30 min at different flow rates (from 1 to 5 μL.min^−1). All compounds tested were present in 2 mM NH4OAc and were delivered at a rate of 5 μL.min^−1 using the syringe pump. The makeup flow (used to assist in the generation of a stable electrospray) consisted of methanol containing 10% (v/v) NH4OAc buffer (2 mM) and was delivered at 5 μL.min^−1.
In each case, the data were fit to the following equation:^17 [formula]
where V0 is the void volume (μL), V is the retention volume (μL), [A] is the analyte concentration (μM), Kd is the binding constant of the ligand to the protein (μM) and Bt is the total picomoles of active protein in the column.

[1] = FIG. 21 Panel A, in 2 mM ammonium acetate
[2] = FIG. 21 Panel B, second column cut from the same capillary, same infusion

SMILES	retention (elution) time [min]	elution time [1] [min]	elution time [2] [min]
Nc1nc2ncc(CNc3ccc(C(=O)N[C@@H](CCC(=O)O)C(=O)O)cc3)nc2c(=O)[nH]1 [folic acid]	7	8.9	8.4
O=c1ccc2ccccc2o1 [coumarin]	2	2.7	2.6
